Values joined by “and” are separate entries in the source; they are usually repeats but may differ in a detail not shown here. Identical values can stand only once. Toxic doses and inconclusive results are not listed. No stated cut-off is given here; in the data, active means T/C of 150% or more; inactive means T/C below 125%.
System: L1210 leukemia ip in BDF1 mice, survival T/C
Assay: NCI In Vivo Anticancer Drug Screen. Data for tumor model L1210 Leukemia (intraperitoneal) in B6D2F1 (BDF1) mice
Settings: endpoint: mean survival time, higher = longer survival
Outline: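 Transplanted-tumor mice were given test agent; controls received vehicle only. Survival readings from the two groups were divided (treated over control).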

[1] = dose: 100.0 mg/kg/injection, schedule: Q01DX009 (ip), vehicle: Klucel (hydroxypropylcellulose) (HPC)
[2] = dose: 100.0 mg/kg/injection, schedule: Q04DX003 (ip), vehicle: Klucel (hydroxypropylcellulose) (HPC)
[3] = dose: 200.0 mg/kg/injection, schedule: Q01DX009 (ip), vehicle: Klucel (hydroxypropylcellulose) (HPC)
[4] = dose: 200.0 mg/kg/injection, schedule: Q04DX003 (ip), vehicle: Klucel (hydroxypropylcellulose) (HPC)
[5] = dose: 400.0 mg/kg/injection, schedule: Q01DX009 (ip), vehicle: Klucel (hydroxypropylcellulose) (HPC)
[6] = dose: 400.0 mg/kg/injection, schedule: Q04DX003 (ip), vehicle: Klucel (hydroxypropylcellulose) (HPC)
[7] = dose: 100.0 mg/kg/injection, schedule: Q04DX002 (ip), vehicle: Klucel (hydroxypropylcellulose) (HPC)
[8] = dose: 200.0 mg/kg/injection, schedule: Q04DX002 (ip), vehicle: Klucel (hydroxypropylcellulose) (HPC)
[9] = dose: 400.0 mg/kg/injection, schedule: Q04DX002 (ip), vehicle: Klucel (hydroxypropylcellulose) (HPC)
[10] = dose: 100.0 mg/kg/injection, schedule: Q01DX005 (ip), vehicle: saline
[11] = dose: 200.0 mg/kg/injection, schedule: Q01DX005 (ip), vehicle: saline
[12] = dose: 100.0 mg/kg/injection, schedule: Q01DX001 (ip), vehicle: saline
[13] = dose: 200.0 mg/kg/injection, schedule: Q01DX001 (ip), vehicle: saline
[14] = dose: 400.0 mg/kg/injection, schedule: Q01DX001 (ip), vehicle: saline
[15] = dose: 50.0 mg/kg/injection, schedule: Q01DX009 (ip), vehicle: acetone
[16] = dose: 100.0 mg/kg/injection, schedule: Q04DX003 (ip), vehicle: saline
[17] = dose: 200.0 mg/kg/injection, schedule: Q04DX003 (ip), vehicle: saline
[18] = dose: 400.0 mg/kg/injection, schedule: Q04DX003 (ip), vehicle: saline
[19] = dose: 100.0 mg/kg/injection, schedule: Q01DX001 (ip), vehicle: carboxymethylcellulose (CMC)

Measured: T/C

BrCc1c(CBr)c(CBr)c(CBr)c(CBr)c1CBr
inactive: [1] 98 % of control | [2] 94 % of control | [3] 97 % of control | [4] 96 % of control | [5] 97 % of control | [6] 96 % of control

Cc1ccc(NC(=S)N(C)C)cc1Cl
inactive: [1] 97 % of control | [2] 104 % of control | [3] 101 % of control | [4] 97 % of control | [5] 100 % of control | [6] 104 % of control

O=C(Nc1ccc(F)cc1)Oc1ccccn1
inactive: dose: 100.0 mg/kg/injection, schedule: Q01DX001 (ip), vehicle: Klucel (hydroxypropylcellulose) (HPC) 101 % of control | [1] 95 % of control | [7] 94 % of control and 100 % of control | [2] 101 % of control | dose: 200.0 mg/kg/injection, schedule: Q01DX001 (ip), vehicle: Klucel (hydroxypropylcellulose) (HPC) 104 % of control | [3] 101 % of control and 87 % of control | [8] 94 % of control and 97 % of control | [4] 103 % of control | dose: 400.0 mg/kg/injection, schedule: Q01DX001 (ip), vehicle: Klucel (hydroxypropylcellulose) (HPC) 93 % of control | [5] 95 % of control and 96 % of control | [9] 94 % of control and 97 % of control | [6] 105 % of control

Cc1nc2ncn(C3OC(CO)C(O)C3O)c2nc1C (centres undefined)
inactive: [10] 95 % of control | [11] 90 % of control

S=C(N/N=C/c1ccc2c(c1)OCO2)Nc1cccc2cccnc12
inactive: [12] 105 % of control | [13] 88 % of control | [14] 96 % of control

COc1cc(OC)c(-c2nc3ccc(C)cc3c(=O)o2)cc1OC
inactive: dose: 100.0 mg/kg/injection, schedule: Q04DX002 (ip), vehicle: saline with Tween-80 103 % of control | dose: 200.0 mg/kg/injection, schedule: Q04DX002 (ip), vehicle: saline with Tween-80 100 % of control | dose: 400.0 mg/kg/injection, schedule: Q04DX002 (ip), vehicle: saline with Tween-80 103 % of control

O=c1[nH]nnc2ncn(C3OC(CO)C(O)C3O)c12 (centres undefined)
inactive: [10] 91 % of control | [11] 87 % of control

CN1N=Nc2cccc3cccc1c23
inactive: [15] 112 % of control | dose: 100.0 mg/kg/injection, schedule: Q01DX009 (ip), vehicle: acetone 107 % of control | dose: 100.0 mg/kg/injection, schedule: Q04DX003 (ip), vehicle: acetone 94 % of control | dose: 200.0 mg/kg/injection, schedule: Q04DX003 (ip), vehicle: acetone 87 % of control

c1ccc(N=N/C(=N/Nc2ccccc2)c2ccccc2)cc1
inactive: dose: 50.0 mg/kg/injection, schedule: Q01DX009 (ip), vehicle: saline with Tween-80 90 % of control | dose: 100.0 mg/kg/injection, schedule: Q01DX009 (ip), vehicle: saline with Tween-80 96 % of control

CC(=O)c1ccc2nc(C)cc(Cl)c2c1
inactive: [12] 96 % of control | [13] 91 % of control | [14] 96 % of control

OC(CBr)c1ccc(Cl)c(Cl)c1 (centres undefined)
inactive: [1] 103 % of control | [2] 97 % of control | [3] 105 % of control | [4] 103 % of control | [5] 97 % of control | [6] 103 % of control

COc1cc(Cn2cccc2C=O)c([N+](=O)[O-])cc1OC
inactive: dose: 25.0 mg/kg/injection, schedule: Q04DX002 (ip), vehicle: Klucel (hydroxypropylcellulose) (HPC) 89 % of control | dose: 50.0 mg/kg/injection, schedule: Q04DX002 (ip), vehicle: Klucel (hydroxypropylcellulose) (HPC) 101 % of control | [7] 86 % of control

CC(C)(CNCc1ccccc1)COS(=O)(=O)O
inactive: [16] 102 % of control | [17] 102 % of control | [18] 100 % of control

NCC1COc2ccccc2N1 (centres undefined)
inactive: dose: 100.0 mg/kg/injection, schedule: Q04DX002 (ip), vehicle: other 108 % of control | dose: 200.0 mg/kg/injection, schedule: Q04DX002 (ip), vehicle: other 101 % of control | dose: 400.0 mg/kg/injection, schedule: Q04DX002 (ip), vehicle: other 111 % of control

O=C(O)CCN1C/C(=C\c2ccccc2)C(=O)C1=O
inactive: [16] 101 % of control | [17] 101 % of control | [18] 101 % of control

COC(=O)C1=C(O)CCCC=C1C(=O)O
inactive: [19] 100 % of control | dose: 200.0 mg/kg/injection, schedule: Q01DX001 (ip), vehicle: carboxymethylcellulose (CMC) 103 % of control | dose: 400.0 mg/kg/injection, schedule: Q01DX001 (ip), vehicle: carboxymethylcellulose (CMC) 103 % of control

CC(O)CN1CCCCC1 (centres undefined)
inactive: dose: 100.0 mg/kg/injection, schedule: Q01DX001 (ip), vehicle: other 98 % of control | dose: 100.0 mg/kg/injection, schedule: Q04DX003 (ip), vehicle: saline with Tween-80 96 % of control | dose: 200.0 mg/kg/injection, schedule: Q01DX001 (ip), vehicle: other 98 % of control | dose: 200.0 mg/kg/injection, schedule: Q04DX003 (ip), vehicle: saline with Tween-80 96 % of control

CCN(CC)CCCC(C)NC/C=C/CNC(C)CCCN(CC)CC (centres undefined)
inactive: dose: 0.78 mg/kg/injection, schedule: Q01DX009 (ip), vehicle: water 104 % of control | dose: 6.25 mg/kg/injection, schedule: Q04DX003 (ip), vehicle: water 105 % of control | dose: 12.5 mg/kg/injection, schedule: Q04DX003 (ip), vehicle: water 92 % of control | dose: 25.0 mg/kg/injection, schedule: Q01DX009 (ip), vehicle: water 104 % of control | dose: 25.0 mg/kg/injection, schedule: Q04DX003 (ip), vehicle: water 103 % of control

O=C1C=C(Nc2ccc(N(CCCl)CCCl)cc2)c2ccccc2C1=O
inactive: [2] 107 % of control | [4] 114 % of control | [6] 95 % of control

Nc1cc(NC(c2ccccc2)c2ccccc2)c(N)c(N)n1
inactive: dose: 100.0 mg/kg/injection, schedule: Q01DX001 (ip), vehicle: gum acacia 88 % of control | dose: 200.0 mg/kg/injection, schedule: Q01DX001 (ip), vehicle: gum acacia 90 % of control | dose: 400.0 mg/kg/injection, schedule: Q01DX001 (ip), vehicle: gum acacia 92 % of control

Cc1ccc(C(c2ccc(C)cc2)C(Cl)(Cl)Cl)cc1
inactive: dose: 100.0 mg/kg/injection, schedule: Q01DX001 (ip), vehicle: saline sonified 93 % of control | dose: 200.0 mg/kg/injection, schedule: Q01DX001 (ip), vehicle: saline sonified 96 % of control | dose: 400.0 mg/kg/injection, schedule: Q01DX001 (ip), vehicle: saline sonified 88 % of control

COC1=NS(=O)(=O)C(C)C(C)(C)O1 (centres undefined)
inactive: [7] 100 % of control | [8] 120 % of control | [9] 100 % of control

O=C1C(Cl)=C(N=Nc2c(Cl)c(O)c3ccccc3c2O)C(=O)c2ccccc21
inactive: dose: 12.5 mg/kg/injection, schedule: Q01DX009 (ip), vehicle: acetone 105 % of control | dose: 25.0 mg/kg/injection, schedule: Q01DX009 (ip), vehicle: acetone 107 % of control | [15] 104 % of control | [19] 97 % of control
